Common to all, as to experiment: growth of human tumour cells (NCI), 48 h
The test system of test [1] is PC-3 prostate.
Test [2] has as its system MALME-3M melanoma.
In test [3] the test system is COLO 205 colon.
Test [4] relates to LOX IMVI melanoma.
Test [5] deals with SK-OV-3 ovarian.
Test [6] concerns SF-295 CNS.
Test [7] relates to SN12C renal.
The subject of test [8] is SW-620 colon.
Test [9] concerns SNB-19 CNS.
Test [10] deals with EKVX NSCLC.
In test [11] the test system is HOP-62 NSCLC.
Test [12] deals with OVCAR-5 ovarian.
For test [13], the system named is SK-MEL-28 melanoma.
For test [14], the system named is OVCAR-3 ovarian.
Test [15] relates to MDA-MB-231 breast.
For test [16], the system named is DU-145 prostate.
Test [17] deals with SF-539 CNS.
Test [18] relates to SNB-75 CNS.
The test system of test [19] is HL-60(TB) leukemia.

Structures are written as SMILES.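 Five compound concentrations were applied to cells in 96-well plates for 48 hours; endpoints were derived by simple linear interpolation of the resulting dose-response curve. TGI marks complete inhibition of growth.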

Consider `OC(CCN1CCCCC1)(c1ccccc1)c1ccccc1`, for which the TGI in test [1], in test [2], in test [3], in test [4], in test [5] and in test [6] was over 100 µM in each case. Also, the TGI in test [7], in test [8], in test [9], in test [10], in [11] and in test [12] was over 100 µM in each case. The TGI in test [13], in [14], in test [15] and in test [16] was over 100 µM in each case.

As for `COc1cc(OCc2nc3ccccc3n3cccc23)cc(OC)c1OC`, the TGI is over 100 µM in test [1]; over 74.4 µM in test [2]; over 82.3 µM in [3]; over 100 µM in test [4]; over 100 µM in [5]; over 100 µM in test [6]. For the same compound, the TGI in test [7] is over 88.9 µM; in test [8] it was over 54.5 µM; in test [9], over 100 µM; in test [17], over 100 µM; in test [10] it was over 62.7 µM; in test [11] it was over 100 µM. Further, the TGI in test [18] was over 100 µM; in [19] it was 48.2 µM; in [12] it was over 100 µM; in test [13], over 90.5 µM; in test [14], over 60.9 µM; in [15] it was over 100 µM. Besides, the TGI in test [16] is over 100 µM.

Consider `CC(=O)O[C@@H]1CC[C@@]2(C)C(CC[C@H]3[C@@H]4CC[C@H]([C@H](C)CCc5nc6ccc(C)cc6[nH]5)[C@@]4(C)CC[C@@H]32)C1` (stereo not given in full), for which the TGI in [1], in [3], in [4], in test [5], in test [6] and in test [7] was over 100 µM each time. In addition, the TGI in test [8] was over 100 µM; in test [9] it was over 100 µM; in test [17], over 100 µM; in test [10], 53.3 µM; in test [11] it was over 100 µM; in [18], 24.1 µM. Besides, the TGI in test [12] is over 100 µM; in test [13], over 100 µM; in [14] it was over 100 µM; in [15], 55.3 µM; in test [16] it was over 100 µM.

For the compound `CN(C)C=Nc1cccc2nsnc12`, the TGI in [1], in test [2], in test [3], in [4], in test [5] and in test [6] was over 100 µM throughout. For the same compound, the TGI in test [7], in test [9], in test [17], in test [10], in [11] and in test [18] was over 100 µM each time. The TGI in test [19], in test [12], in test [13], in test [14], in test [15] and in test [16] was over 100 µM in each case.

In the case of `O=C(O)c1ccc(P(=O)(O)c2ccc(C(=O)O)cc2Br)c(Br)c1`, the TGI in test [1], in [3], in [4], in test [5], in [6] and in test [7] was over 100 µM each time. Also, the TGI in [8], in [9], in test [17], in [10], in [11] and in [18] was over 100 µM in each case. The TGI in [19], in test [13], in test [14], in test [15] and in [16] was over 100 µM in each case.

With `CCOC(=O)CCC(NC(=O)c1ccc(CNc2nc3ccccc3nc2C(=O)OCC)cc1)C(=O)OCC` (stereo not given), the TGI in [1], in test [2], in test [3], in [4], in test [5] and in [6] was over 100 µM throughout. Moreover, the TGI in test [7], in test [8], in [9], in test [10], in test [11] and in test [18] was over 100 µM in each case. In addition, the TGI in test [12], in test [13], in [14], in test [15] and in test [16] was over 100 µM in each case.

As to `COC(=O)Nc1nc2ccc(S(=O)(=O)NC(CC(C)C)C(=O)OC)cc2[nH]1` (stereo not given), the TGI in [1] is over 100 µM; in [2] it was 41.2 µM; in test [3], 59.3 µM; in test [4], over 100 µM; in test [5], over 100 µM; in [6] it was 5.44 µM. Further, the TGI in test [7] is over 100 µM; in test [8], over 100 µM; in test [9], 45 µM; in test [17], 38.3 µM; in test [10], 89.8 µM; in [11], over 100 µM. Further, the TGI was 8.16 µM in [18]; 8.04 µM in [19]; 95.1 µM in test [12]; over 100 µM in test [13]; 2.7 µM in [14]; over 100 µM in test [15].

With `CCOC(=O)NNC(=O)C1CSC(c2ccccc2)N1C(C)=O` (stereo not given), the TGI in [1], in test [2], in test [3], in [4], in test [5] and in test [6] was over 100 µM each time. In addition, the TGI in test [7], in test [8], in test [9], in test [17], in [10] and in test [11] was over 100 µM in each case. The TGI in test [18], in test [19], in test [12], in test [14], in test [15] and in test [16] was over 100 µM throughout.

For the compound `Cc1oc2c(c1C)S(=O)(=O)C(C#N)C(c1ccccc1)N2` (stereo not given), the TGI in test [1], in test [2], in test [3], in [4], in test [5] and in test [6] was over 100 µM throughout. Besides, the TGI in [7], in [8], in test [9], in test [17], in [10] and in [11] was over 100 µM each time. Besides, the TGI in test [18], in [12], in test [13], in test [14], in test [15] and in test [16] was over 100 µM in each case.

For `CC(=O)Oc1cc2c(n(C)c1=O)-c1ccccc1C2`, the TGI in test [1], in test [2], in [3], in test [4], in [5] and in [6] was over 100 µM each time. Besides, the TGI in test [7] was over 100 µM; in test [8], 65.9 µM; in [9], over 100 µM; in test [11], over 100 µM; in test [18], over 100 µM; in [12] it was over 100 µM. In addition, the TGI in [13], in [14], in [15] and in [16] was over 100 µM each time.

For `N#CC(C#N)N=Cc1ccncc1`, the TGI in test [1], in [2], in [3], in test [4], in test [5] and in test [6] was over 100 µM each time. For the same compound, the TGI in test [7], in test [8], in [17], in test [10], in test [11] and in [18] was over 100 µM in each case. The TGI in [19], in test [12], in test [13], in test [14], in [15] and in [16] was over 100 µM each time.

In the case of `CC(=O)C(I(OS(=O)(=O)c1ccc(C)cc1)c1ccccc1)=P(c1ccccc1)(c1ccccc1)c1ccccc1`, the TGI is over 100 µM in test [1]; 30 µM in [2]; 31.4 µM in [3]; over 100 µM in test [5]; over 100 µM in test [6]; 69.2 µM in test [7]. Besides, the TGI was over 100 µM in [9]; 39.1 µM in test [17]; 70.8 µM in test [10]; 59.6 µM in test [11]; 76.3 µM in test [19]; 60.2 µM in [12]. The TGI is 36.4 µM in test [13], 56.1 µM in [14], 69.3 µM in test [15] and 58.7 µM in test [16].

As for `COC(=O)C(C)NP(=O)(N1CC1)N1CC1` (stereo not given), the TGI in test [2], in test [3], in test [4], in [5], in [6] and in test [7] was over 100 µM throughout. Also, the TGI in test [8], in test [9], in test [17], in test [10], in [18] and in test [19] was over 100 µM in each case. The TGI in test [12] and in [13] was over 100 µM each time.

On to `CC(C)(C)O/C=C1/C(=O)OC2C[C@@H](O[Si](C)(C)C(C)(C)C)CC12` (stereo not given in full), for which the TGI in [1], in [2], in test [3], in [4], in test [5] and in test [6] was over 100 µM each time. Besides, the TGI was over 100 µM in test [7]; over 100 µM in test [8]; over 100 µM in [9]; over 100 µM in test [10]; over 100 µM in test [11]; 93.3 µM in test [18]. Further, the TGI in test [12], in test [13], in test [14], in test [15] and in test [16] was over 100 µM in each case.

Turning to `CN(C)C=C1C(=O)c2c(Br)sc(Br)c2C1=O`, the TGI in test [1] was determined as 49.9 µM; in test [2] it was 29.3 µM; in [3] it was 37.7 µM; in test [4], 38.9 µM; in test [5], 62.7 µM; in test [6], 49.7 µM. In addition, the TGI in [7] was over 100 µM; in [8], over 100 µM; in test [9] it was 80.4 µM; in test [17], 35.7 µM; in test [10], 40.5 µM; in test [11] it was 91.4 µM. In addition, the TGI in test [18] was 43.5 µM; in test [19] it was 53.7 µM; in test [12], 76.2 µM; in test [13], 31.3 µM; in test [14], 40.8 µM; in test [16] it was over 100 µM.

Take `Cc1ccc(-n2cnc3c(N)nc(N)nc32)cc1`: the TGI in test [1], in [2], in test [3], in test [4], in test [5] and in [6] was over 100 µM each time. Moreover, the TGI in test [7], in test [8], in test [9], in test [17], in test [10] and in [11] was over 100 µM each time. Besides, the TGI in [18], in [12], in test [13], in [14], in test [15] and in test [16] was over 100 µM throughout.

For the origin of these results see PubChem BioAssay (NCI).
